# From patent US9694024B2 (priority 2010, dated 2017)
# Entries after “also recorded” stand apart in the source; their conditions may differ. Where two headings read alike, the source gives them in different places.
# Key:
# HIV-1 subtypes (A-G, O) = experiment: Activity against HIV-1 subtypes in PBMCs; type: cell-based; details: Human immunodeficiency virus 1, PBMC
# XMRV = XMRV antiviral cytoprotection assay (PG-4 cells, XTT); type: cell-based; details: 144 h, 6 day assay, read-out: EC50s for XMRV
# Experimental: An XMRV antiviral cytoprotection assay was conducted using PG-4 cells (ATCC# CRL-2032; feline astrocytes) and XMRV was collected from the supernatant of 22Rv1 human prostate cancer cells (ATCC# CRL-2505). Inhibition of cytopathic effect was quantified using XTT following a 6 day assay. Ribavirin and AZT were evaluated in parallel as control compounds.
# [1] = Phase I single dose study, plasma pharmacokinetics; type: in vivo, human; details: for Cmax / AUC(0-inf): human; for Cmax / AUC(0-inf) / TFV AUCINF / TFV Cmax: plasma; for AUC(0-inf): read-out: CMX157 AUCINF
# Experimental: (§1) The study was a randomized, blinded, dose escalation trial to evaluate safety, tolerability, and pharmacokinetics. Healthy volunteers in each cohort (6 active/2 placebo) received a single dose of 25, 50, 100, 200 or 400 mg. An additional cohort received a standard dose of Viread for comparison of TFV-PP levels. For tenofovir anabolite analysis, PBMCs were lysed with 70% ice cold methanol and centrifuged; supernatants were analyzed using LC/MS/MS. The clinical samples were split into two aliquots. One aliquot was used for analysis of CMX157; following addition of an internal standard, these samples were evaporated to dryness prior to reconstitution and analysis. The second aliquot was for analysis of TFV, TFV-monophosphate and TFV-diphosphate; following addition of internal standards, samples were vortexed and centrifuged prior to analysis.
# [2] = Phase I single dose study, safety and tolerability; type: in vivo, human; details: healthy volunteers, single doses 25 mg to 400 mg
# Experimental: as §1
# [3] = Phase I single dose study, TFV-diphosphate in PBMCs of healthy volunteers; type: in vivo, human; details: single 400 mg dose of CMX157
# Experimental: as §1
# [4] = molecular target: human OAT3 (organic anion transporter3) (Homo sapiens (Human), UniProt Q8TCC7); experiment: hOAT3 mediated uptake in MDCK-II cells; type: in vitro ADME; details: for Cellular Accumulation (control): control vector cells of hOAT3 test; for Cellular Accumulation (transporter): hOAT3 expressing MDCK-II cells
# Experimental: Experimental: The uptake test system was comprised of a polarized monolayer of MCDK-II cells grown on permeable supports. The MDCK-II cells were treated to express the transporter of interest or treated with a control vector.
# The uptake of 2 μM [^3H]-p-aminohippurate (PAH) and 0.75 μM [^3H]-estrone-3-sulfate (E-3-S) in the absence and presence of the reference inhibitor was determined by radiometric detection. The uptake of CMX157 and tenofovir was in the absence and presence of the reference inhibitor or 20% human serum was determined by LC/MS/MS. Experiments were performed under the same conditions for the cells expressing the transporter or those treated with the control vector.
# Net Transporter Mediated Uptake=(Cellular accumulation in the presence of the transporter)−(Cellular accumulation in the absence of the transporter) Results: The net hOAT1 mediated uptake of tenofovir in the presence and absence of 100 μM probenecid or 20% human serum is shown in FIG. 8. The transport of tenofovir is inhibited by probenecid and relatively unchanged by the presence of 20% human serum. OAT3 also appeared to mediate the transport of tenofovir. The effect of probenecid, however, was minimal. The presence of 20% human serum in the OAT3 experiment reduced the OAT3 mediated transport of tenofovir.
# human PBMCs [5] = details: activated human PBMCs, cited from earlier work
# [6] = molecular target: human OAT1 (organic anion transporter1) (Homo sapiens (Human), UniProt Q4U2R8); experiment: hOAT1 mediated uptake in MDCK-II cells; details: for Cellular Accumulation (control): control vector cells of hOAT1 test; for Cellular Accumulation (transporter): hOAT1 expressing MDCK-II cells
# CEM-SS cells = experiment: Toxicity XTT in CEM-SS cells
# HIV-1IIIB = experiment: Anti-HIV-1 cytoprotection assay (CEM-SS, XTT)
# [7] = cited from earlier work
# human PBMCs [8] = experiment: Intracellular TFV-diphosphate in human PBMCs in vitro; details: human PBMCs (IL-2/PHA) after incubation with 1 μM CMX157 for 48 hours
# [9] = single oral dose CMX157 200 mg, mean
# [10] = single oral dose CMX157 400 mg, mean
# [11] = hOAT3, substrate alone (E3S 0.75 μM)
# [12] = hOAT1, substrate alone (PAH 2 μM)
# [13] = Human immunodeficiency virus 1, IIIB, CEM-SS, 144 h, read-out: CEMSS/IIIB EC50
structure (smiles),measurement,setting,value
"CCCCCCCCCCCCCCCCOCCCOP(=O)(O)CO[C@H](C)Cn1cnc2c(N)ncnc21 [CMX157, 3-(hexadecyloxy)propyl hydrogen ((R)-1-(6-amino-9H-purin 9-yl)propan-2-yloxy)methylphosphonate]",IC50,"HIV-1 subtypes (A-G, O); previously tested, read-out: IC50s against HIV-1 subtypes (A-G, O)",1 to 7 nM
same,EC50,"HIV-1 subtypes (A-G, O); read-out: EC50 against all major subtypes of HIV-1 in PBMCs",0.2 to 7.18 nM
same,EC50,XMRV,3 to 500 nM
same,change of CMX157 plasma Cmax and AUC with dose,[1]; 25 mg to 400 mg single oral dose,approximate linear increase; also recorded: increased linearly with dose
same,Cmax,"[1]; oral, all single dose groups (25 to 400 mg), read-out: Cmax levels",> 10 nM
same,AUC(0-inf),[1]; [9],210 ng·h/mL
same,Cmax,"[1]; single oral dose CMX157 200 mg, mean, read-out: CMX157 Cmax",74 ng/mL
same,AUC(0-inf),[1]; [10],376 ng·h/mL
same,Cmax,"[1]; single oral dose CMX157 400 mg, mean, read-out: CMX157 Cmax",165 ng/mL
same,serious and remarkable adverse events,[2],No SAEs or remarkable AEs were reported
same,subjects reporting mild headache,[2],3
same,tolerability,[2],well tolerated
same,TFV-diphosphate in PBMCs,[3],measurable in all subjects; also recorded: measurable in PBMCs from all patients
same,TFV-diphosphate in PBMCs 6 days after dosing,[3],all but one had detectable levels
same,substrate for human OAT3,[4],did not appear to be a substrate
same,Cellular Accumulation (control),[4]; + 100 μM probenecid,49.5 ± 2.65 pmol/min/cm^2
same,Cellular Accumulation (control),[4]; + 20% human serum,4.90 ± 1.57 pmol/min/cm^2
same,Cellular Accumulation (control),[4]; substrate alone (E3S 0.75 μM),39.5 ± 11.6 pmol/min/cm^2
same,Net Transporter Mediated Cellular Accumulation,"[4]; hOAT3, + 100 μM probenecid",−23.4 ± 7.59 pmol/min/cm^2
same,Net Transporter Mediated Cellular Accumulation,"[4]; hOAT3, + 20% human serum",1.26 ± 0.396 pmol/min/cm^2
same,Net Transporter Mediated Cellular Accumulation,[4]; [11],−8.72 pmol/min/cm^2
same,Cellular Accumulation (transporter),[4]; + 100 μM probenecid,26.1 ± 7.59 pmol/min/cm^2
same,Cellular Accumulation (transporter),[4]; + 20% human serum,6.16 ± 0.396 pmol/min/cm^2
same,Cellular Accumulation (transporter),[4]; substrate alone (E3S 0.75 μM),30.7 pmol/min/cm^2
same,TFV-diphosphate produced,human PBMCs [5]; 10 nM CMX157 (Lanier 2010),70 fmoles per million cells
same,Cellular Accumulation (control),[6]; + 100 μM probenecid,40.4 ± 5.17 pmol/min/cm^2
same,Cellular Accumulation (control),[6]; + 20% human serum,6.46 ± 0.168 pmol/min/cm^2
same,Cellular Accumulation (control),[6]; substrate alone (PAH 2 μM),50.3 ± 1.30 pmol/min/cm^2
same,Net Transporter Mediated Cellular Accumulation,"[6]; hOAT1, + 100 μM probenecid",−14.5 ± 4.65 pmol/min/cm^2
same,Net Transporter Mediated Cellular Accumulation,"[6]; hOAT1, + 20% human serum",−0.954 ± 1.70 pmol/min/cm^2
same,Net Transporter Mediated Cellular Accumulation,[6]; [12],−13.0 ± 0.0465 pmol/min/cm^2
same,Cellular Accumulation (transporter),[6]; + 100 μM probenecid,25.9 ± 4.65 pmol/min/cm^2
same,Cellular Accumulation (transporter),[6]; + 20% human serum,5.51 ± 1.70 pmol/min/cm^2
same,Cellular Accumulation (transporter),[6]; substrate alone (PAH 2 μM),37.3 ± 0.0465 pmol/min/cm^2
C[C@H](Cn1cnc2c(N)ncnc21)OCP(=O)(O)OCCCOCCCC(=O)O [CMX157-220],CEMSS TC50,CEM-SS cells,>10000 nM
same,EC50,HIV-1IIIB; [13],> 10000 nM
"CC(Cn1cnc2c(N)ncnc21)OCP(=O)(O)OP(=O)(O)OP(=O)(O)O (stereo in doubt) [TFV-PP, tenofovir-diphosphate]",median human TFV-PP,[7]; Kiser et al. JAIDS 2008:47,0.076 pmol/10^6
same,in vitro intracellular half-life of TFV-PP (t1/2),human PBMCs [8],79.2 h
"C[C@]12CC[C@@H]3c4ccc(OS(=O)(=O)O)cc4CC[C@H]3[C@@H]1CCC2=O [E3S, estrone-3-sulfate]",Cellular Accumulation (control),[4]; substrate alone (E3S 0.75 μM),39.5 ± 11.6 pmol/min/cm^2
same,Net Transporter Mediated Cellular Accumulation,[4]; [11],−8.72 pmol/min/cm^2
same,Cellular Accumulation (transporter),[4]; substrate alone (E3S 0.75 μM),30.7 pmol/min/cm^2
"C[C@H](Cn1cnc2c(N)ncnc21)OCP(=O)(O)O [Tenofovir, (R)-9-(2-phosphonylmethoxypropyl)adenine, reference compound]",TFV AUCINF,[1]; [9],283 ng·h/mL
same,TFV Cmax,[1]; [9],16 ng/mL
same,TFV AUCINF,[1]; [10],371 ng·h/mL
same,TFV Cmax,[1]; [10],27 ng/mL
same,Cellular Accumulation (control),[4]; + 100 μM probenecid,1.94 ± 0.345 pmol/min/cm^2
same,Cellular Accumulation (control),[4]; + 20% human serum,2.28 ± 1.24 pmol/min/cm^2
same,Cellular Accumulation (control),[4]; substrate alone (E3S 0.75 μM),2.65 ± 1.96 pmol/min/cm^2
same,Net Transporter Mediated Cellular Accumulation,"[4]; hOAT3, + 100 μM probenecid",1.35 ± 0.364 pmol/min/cm^2
same,Net Transporter Mediated Cellular Accumulation,"[4]; hOAT3, + 20% human serum",−0.292 ± 0.0591 pmol/min/cm^2
same,Net Transporter Mediated Cellular Accumulation,[4]; [11],1.03 ± 0.591 pmol/min/cm^2
same,Cellular Accumulation (transporter),[4]; + 100 μM probenecid,3.29 ± 0.364 pmol/min/cm^2
same,Cellular Accumulation (transporter),[4]; + 20% human serum,1.99 ± 0.0591 pmol/min/cm^2
same,Cellular Accumulation (transporter),[4]; substrate alone (E3S 0.75 μM),3.68 ± 0.591 pmol/min/cm^2
same,TFV-diphosphate produced,human PBMCs [5]; 1 μM TFV,50 fmoles per million cells
same,Cmax,[7]; VIREAD package insert 2007,~1000 nM
same,substrate for human OAT1,[6]; MDCK,appeared to be a substrate
same,Cellular Accumulation (control),[6]; + 100 μM probenecid,2.22 ± 0.995 pmol/min/cm^2
same,Cellular Accumulation (control),[6]; + 20% human serum,1.77 ± 1.13 pmol/min/cm^2
same,Cellular Accumulation (control),[6]; substrate alone (PAH 2 μM),2.45 ± 0.197 pmol/min/cm^2
same,Net Transporter Mediated Cellular Accumulation,"[6]; hOAT1, + 100 μM probenecid",4.49 ± 1.46 pmol/min/cm^2
same,Net Transporter Mediated Cellular Accumulation,"[6]; hOAT1, + 20% human serum",20.0 ± 3.45 pmol/min/cm^2
same,Net Transporter Mediated Cellular Accumulation,[6]; [12],19.5 ± 4.04 pmol/min/cm^2
same,Cellular Accumulation (transporter),[6]; + 100 μM probenecid,6.71 ± 1.46 pmol/min/cm^2
same,Cellular Accumulation (transporter),[6]; + 20% human serum,21.8 ± 3.45 pmol/min/cm^2
same,Cellular Accumulation (transporter),[6]; substrate alone (PAH 2 μM),21.9 ± 4.04 pmol/min/cm^2
C[C@H](Cn1cnc2c(N)ncnc21)OCP(=O)(O)OCCCO [CMX157-210],CEMSS TC50,CEM-SS cells,>10000 nM
same,EC50,HIV-1IIIB; [13],> 10000 nM
"Cc1cn([C@H]2C[C@H](N=[N+]=[N-])[C@@H](CO)O2)c(=O)[nH]c1=O [AZT, 3′-azido-2′,3′-dideoxythymidine, reference compound]",CEMSS TC50,CEM-SS cells,>100 nM
same,EC50,"HIV-1IIIB; Human immunodeficiency virus 1, IIIB, CEM-SS",3 nM
same,EC50,HIV-1IIIB; [13],3 nM
same,Therapeutic Index,"HIV-1IIIB; TC50/EC50, CEM-SS, HIV-1 IIIB",>33.3
CCCCCCCCCCCCCCCCOCCCOP(=O)([O-])CO[C@H](C)Cn1cnc2c(N)ncnc21.[K+] [CMX157 K^+ salt],CEMSS TC50,CEM-SS cells,5200 nM
same,EC50,"HIV-1IIIB; CEM-SS cells, HIV-1 IIIB",< 30 nM
same,EC50,"HIV-1IIIB; read-out: CEMSS/IIIB EC50, CEM-SS cells, HIV-1 IIIB, 6 days, XTT",< 30 nM
C[C@H](Cn1cnc2c(N)ncnc21)OCP(=O)(O)OCCCOCC(=O)O [CMX157-211],CEMSS TC50,CEM-SS cells,>10000 nM
same,EC50,HIV-1IIIB; [13],> 10000 nM
